Assay results as given in the NIST ThermoML archive (doi:10.1016/j.jct.2019.02.028).
± gives the expanded uncertainty stated by the source.

Experiment: xn = mol fraction of the nth substance listed
Details: Gas, Burnett expansion method

C=C(F)C(F)(F)F [2,3,3,3-tetrafluoro-1-propene] + FCF
Details	mass density [kg/m3]
373.17 K, 4066.8 kPa, x2 = 0.259	238.02 ± 2.8
373.17 K, 4925.9 kPa, x2 = 0.874	143.64 ± 2.3
373.18 K, 619.83 kPa, x2 = 0.259	20.68 ± 0.16
373.18 K, 900.76 kPa, x2 = 0.449	26.92 ± 0.23
373.18 K, 906.18 kPa, x2 = 0.259	31.05 ± 0.22
373.18 K, 916.21 kPa, x2 = 0.874	18.76 ± 0.21
373.18 K, 1093.4 kPa, x2 = 0.119	41.92 ± 0.24
373.18 K, 1339 kPa, x2 = 0.874	28.18 ± 0.32
373.18 K, 1863.1 kPa, x2 = 0.449	60.74 ± 0.57
373.18 K, 2517.6 kPa, x2 = 0.259	105.24 ± 1.2
373.18 K, 2728.4 kPa, x2 = 0.874	63.56 ± 0.72
373.18 K, 3301.3 kPa, x2 = 0.259	158.31 ± 2.2
373.19 K, 755.34 kPa, x2 = 0.119	27.91 ± 0.14
373.19 K, 1931.1 kPa, x2 = 0.874	42.32 ± 0.49
373.19 K, 2828.2 kPa, x2 = 0.119	142.15 ± 1.3
373.2 K, 624.61 kPa, x2 = 0.874	12.49 ± 0.15
373.2 K, 3505 kPa, x2 = 0.119	213.51 ± 3.3
373.2 K, 4006.2 kPa, x2 = 0.119	320.47 ± 6.9
373.2 K, 4661.9 kPa, x2 = 0.259	359.6 ± 5
373.21 K, 1306.4 kPa, x2 = 0.259	46.64 ± 0.34
378.05 K, 2079.9 kPa, x2 = 0.698	53.99 ± 0.5
378.06 K, 1451.7 kPa, x2 = 0.698	35.94 ± 0.32
378.07 K, 5426.1 kPa, x2 = 0.449	308.92 ± 3.2
378.08 K, 622.36 kPa, x2 = 0.449	17.91 ± 0.16
378.08 K, 2782.2 kPa, x2 = 0.874	63.55 ± 0.72
378.08 K, 2911.8 kPa, x2 = 0.698	81.09 ± 0.78
378.08 K, 3552.8 kPa, x2 = 0.449	136.97 ± 1.5
378.08 K, 4525.2 kPa, x2 = 0.449	205.67 ± 2.4
378.09 K, 1328.7 kPa, x2 = 0.449	40.42 ± 0.36
378.09 K, 1878.5 kPa, x2 = 0.259	70.04 ± 0.61
378.09 K, 2649.2 kPa, x2 = 0.449	91.19 ± 0.93
378.09 K, 3936.7 kPa, x2 = 0.698	121.78 ± 1.5
378.09 K, 4937.5 kPa, x2 = 0.259	358.03 ± 3.3
378.09 K, 5074.6 kPa, x2 = 0.698	182.93 ± 2.3
378.1 K, 678.04 kPa, x2 = 0.698	15.93 ± 0.14
378.1 K, 920.5 kPa, x2 = 0.259	31.05 ± 0.22
378.1 K, 997.84 kPa, x2 = 0.698	23.93 ± 0.21
378.1 K, 1582.4 kPa, x2 = 0.119	62.96 ± 0.36
378.1 K, 1897.6 kPa, x2 = 0.449	60.71 ± 0.56
378.1 K, 2190.4 kPa, x2 = 0.119	94.57 ± 0.59
378.1 K, 3832.4 kPa, x2 = 0.874	95.49 ± 1.1
378.1 K, 4232.9 kPa, x2 = 0.259	237.67 ± 2.6
378.1 K, 5071.5 kPa, x2 = 0.874	143.48 ± 2.2
378.11 K, 629.16 kPa, x2 = 0.259	20.67 ± 0.16
378.11 K, 767.1 kPa, x2 = 0.119	27.9 ± 0.14
378.11 K, 914.69 kPa, x2 = 0.449	26.91 ± 0.23
378.11 K, 1360.2 kPa, x2 = 0.874	28.17 ± 0.32
378.11 K, 1964.7 kPa, x2 = 0.874	42.31 ± 0.49
378.11 K, 2577.3 kPa, x2 = 0.259	105.22 ± 1.2
378.11 K, 2909.1 kPa, x2 = 0.119	142.06 ± 1.3
378.12 K, 633.28 kPa, x2 = 0.874	12.49 ± 0.15
378.12 K, 929.88 kPa, x2 = 0.874	18.75 ± 0.21
378.12 K, 1329.1 kPa, x2 = 0.259	46.64 ± 0.34
378.12 K, 3399.6 kPa, x2 = 0.259	158.16 ± 2.1
378.12 K, 3642.1 kPa, x2 = 0.119	213.38 ± 3
378.12 K, 4237.1 kPa, x2 = 0.119	320.38 ± 5.9
378.13 K, 1112 kPa, x2 = 0.119	41.91 ± 0.24
382.98 K, 1475.1 kPa, x2 = 0.698	35.93 ± 0.32
382.98 K, 2117.2 kPa, x2 = 0.698	53.97 ± 0.49
382.99 K, 631.25 kPa, x2 = 0.449	17.91 ± 0.16
383 K, 1350.2 kPa, x2 = 0.449	40.4 ± 0.35
